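These data come from cells grown in 96-well plates and exposed to compound for 48 hours at five concentrations. The concentration for 50% growth inhibition is given as GI50.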 Calls of active or inactive are those of the source. Rule as the data show it: active = GI50 up to about 1.1 µM and inactive = higher.
Legend:
Experiment in all cases: NCI-60 cell line screen, 48 h
[1] = system: 786-0
[2] = system: A549
[3] = system: ACHN
[4] = system: COLO 205
[5] = system: HCT-116
[6] = system: HOP-92
[7] = system: HT-29
[8] = system: K562
[9] = system: KM12
[10] = system: M14
[11] = system: M19-MEL
[12] = system: MOLT-4
[13] = system: OVCAR-4
[14] = system: SF-268
[15] = system: SK-MEL-28
[16] = system: SK-MEL-5
[17] = system: HOP-62

Measured: GI50

O=C1OC(c2ccccc2)=N/C1=C\c1c(O)cc(O)cc1O
inactive: [1] > 100 µM | [2] > 100 µM | [3] 53.2 µM | [4] > 100 µM | [5] 96.6 µM | [6] > 100 µM | [7] > 100 µM | [8] 32.4 µM | [9] > 100 µM | [10] 60.3 µM | [11] 83.6 µM | [12] > 100 µM | [13] > 100 µM | [14] 99.5 µM | [15] > 100 µM | [16] > 100 µM

CCOC(=O)c1nc2ccc([N+](=O)[O-])cc2c2c1CCO2
inactive: [1] > 100 µM | [2] > 100 µM | [3] > 100 µM | [4] > 100 µM | [5] > 100 µM | [17] > 100 µM | [7] > 100 µM | [8] > 100 µM | [9] > 100 µM | [10] > 100 µM | [11] > 100 µM | [12] > 100 µM | [13] > 100 µM | [14] > 100 µM | [15] > 100 µM | [16] > 100 µM

c1ccc(OCc2nnc3n2N=C(c2ccccc2)CS3)cc1
inactive: [1] > 100 µM | [2] > 100 µM | [3] > 100 µM | [5] > 100 µM | [17] > 100 µM | [6] > 100 µM | [7] > 100 µM | [8] > 100 µM | [9] > 100 µM | [10] > 100 µM | [11] > 100 µM | [12] 71.6 µM | [13] > 100 µM | [14] > 100 µM | [15] > 100 µM | [16] > 100 µM

COc1ccc2c(c1)[n+]([O-])c(-c1ccc(C)cc1)c(N)[n+]2[O-]
inactive: [1] 70.8 µM | [2] 55.3 µM | [3] 57.4 µM | [4] 20.2 µM | [5] > 100 µM | [17] > 100 µM | [6] > 100 µM | [7] 52.5 µM | [8] 67.1 µM | [9] 44.8 µM | [10] 52.5 µM | [11] 51.1 µM | [13] 88.7 µM | [15] 89.5 µM | [16] 35.8 µM

N#CC1(C#N)C(c2ccc(C3C(C#N)(C#N)C3(C#N)C#N)cc2)C1(C#N)C#N
inactive: [1] > 100 µM | [2] > 100 µM | [3] > 100 µM | [4] > 100 µM | [17] > 100 µM | [6] > 100 µM | [7] > 100 µM | [8] > 100 µM | [9] > 100 µM | [10] > 100 µM | [11] > 100 µM | [12] > 100 µM | [13] > 100 µM | [14] > 100 µM | [15] > 100 µM | [16] > 100 µM

Oc1cc(Cl)ncn1
inactive: [1] > 100 µM | [2] > 100 µM | [3] > 100 µM | [4] > 100 µM | [5] > 100 µM | [17] > 100 µM | [7] > 100 µM | [8] > 100 µM | [9] > 100 µM | [10] > 100 µM | [11] > 100 µM | [12] > 100 µM | [13] > 100 µM | [14] > 100 µM | [15] > 100 µM | [16] > 100 µM

Cc1c(C2Cc3ccccc3N2C(=O)/C=C\C(=O)O)c2ccccc2n1C (stereo unspecified)
inactive: [1] 18.4 µM | [2] 33 µM | [3] 38.6 µM | [4] 17.1 µM | [5] 27.5 µM | [17] 27.6 µM | [6] 17.7 µM | [7] 35.3 µM | [8] 36.4 µM | [9] 18.4 µM | [10] 17.8 µM | [11] 19.7 µM | [12] 27.7 µM | [13] 30.6 µM | [14] 18.7 µM | [16] 18.2 µM

— ChEMBL document CHEMBL1201862, “PubChem BioAssay data set” (2004)
